Source: patent US8906852B2 (MethylGene Inc., priority 2010, dated 2014)
pIC50: −log10 of the molar value.

Each compound was assayed against T1, VEGFR/KDR (Homo sapiens, UniProt P35968) (assay: VEGFR/KDR kinase inhibition, DELFIA assay). Details: ATP 0.6 uM (2x Km), enzyme 5 nM.
T1 construct: made in house; host or cells: Sf9 cells (Spodoptera frugiperda), baculovirus
Type: biochemical
How it was run: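 DELFIA time-resolved fluorescence readout using Europium-tagged anti-phosphotyrosine antibody after EDTA stop. Kinase reaction on plate-bound poly(Glu4,Tyr) ran 10-30 min at 30° C with 5 nM enzyme and 0.6 uM ATP (2× Km), following 4 min on-ice pre-incubation with compound; IC50 over a concentration range.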

T1 sequence (P35968 806-1356): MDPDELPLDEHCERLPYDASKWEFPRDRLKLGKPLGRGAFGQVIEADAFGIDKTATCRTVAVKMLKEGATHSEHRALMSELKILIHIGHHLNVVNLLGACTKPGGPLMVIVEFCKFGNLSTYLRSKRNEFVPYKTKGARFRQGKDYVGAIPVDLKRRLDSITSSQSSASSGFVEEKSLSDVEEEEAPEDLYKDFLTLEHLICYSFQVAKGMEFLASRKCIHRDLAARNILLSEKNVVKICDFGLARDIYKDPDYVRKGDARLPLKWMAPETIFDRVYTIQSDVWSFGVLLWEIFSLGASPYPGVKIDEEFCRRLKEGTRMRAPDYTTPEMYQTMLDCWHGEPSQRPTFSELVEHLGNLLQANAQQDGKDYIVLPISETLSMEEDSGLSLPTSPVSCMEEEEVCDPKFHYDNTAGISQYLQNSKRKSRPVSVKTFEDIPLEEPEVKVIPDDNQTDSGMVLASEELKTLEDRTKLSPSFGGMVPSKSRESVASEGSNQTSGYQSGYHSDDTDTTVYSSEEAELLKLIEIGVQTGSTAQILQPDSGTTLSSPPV

pIC50	SMILES
> 7.30	O=C(Nc1ccc(Oc2ccnc3cc(-c4ccc(CN5CCC6(CC5)CCN(C(=O)CO)C6)cn4)sc23)c(F)c1)NC1CC1 [Compound 524, 1-cyclopropyl-3-(3-fluoro-4-(2-(5-((2-(2-hydroxyacetyl)-2,8-diazaspiro[4.5]decan-8-yl)methyl)pyridin-2-yl)thieno[3,2-b]pyridin-7-yloxy)phenyl)urea]
> 7.30	O=C(Nc1ccc(Oc2ccnc3cc(-c4ccc(CN5CCCN(C(=O)CO)CC5)cn4)sc23)c(F)c1)NC1CC1 [Compound 526, 1-cyclopropyl-3-(3-fluoro-4-(2-(5-((4-(2-hydroxyacetyl)-1,4-diazepan-1-yl)methyl)pyridin-2-yl)thieno[3,2-b]-pyridin-7-yloxy)phenyl)urea]
> 7.30	C[C@H]1CN(Cc2ccc(-c3cc4nccc(Oc5ccc(NC(=O)NC6CC6)cc5F)c4s3)nc2)CCN1 [Compound 527]
> 7.30	CC(=O)OCC(=O)N1CCN(Cc2ccc(-c3cc4nccc(Oc5ccc(NC(=O)NC6CC6)cc5F)c4s3)nc2)C[C@@H]1C [Compound 528, (S)-2-(4-((6-(7-(4-(3-cyclopropylureido)-2-fluorophenoxy)thieno[3,2-b]pyridin-2-yl)pyridin-3-yl)methyl)-2-methylpiperazin-1-yl)-2-oxoethyl acetate]
> 7.30	C[C@H]1CN(Cc2ccc(-c3cc4nccc(Oc5ccc(NC(=O)NC6CC6)cc5F)c4s3)nc2)CCN1C(=O)CO [Compound 529, (S)-1-cyclopropyl-3-(3-fluoro-4-(2-(5-((4-(2-hydroxyacetyl)-3-methylpiperazin-1-yl)methyl)pyridin-2-yl)thieno[3,2-b]pyridin-7-yloxy)phenyl)urea]
> 7.30	C[C@@H]1CN(Cc2ccc(-c3cc4nccc(Oc5ccc(NC(=O)NC6CC6)cc5F)c4s3)nc2)C[C@H](C)N1 [Compound 530, 1-cyclopropyl-3-(4-(2-(5-(((3S,5R)-3,5-dimethylpiperazin-1-yl)methyl)pyridin-2-yl)thieno[3,2-b]-pyridin-7-yloxy)-3-fluorophenyl)urea]
> 7.30	C[C@@H]1CN(Cc2ccc(-c3cc4nccc(Oc5ccc(NC(=O)NC6CC6)cc5F)c4s3)nc2)C[C@H](C)N1C(=O)CO [Compound 531, 1-cyclopropyl-3-(3-fluoro-4-(2-(5-(((3S,5R)-4-(2-hydroxyacetyl)-3,5-dimethylpiperazin-1-yl)methyl)pyyridin-2-yl)thieno[3,2-b]pyridin-7-yloxy)phenyl)urea]
> 7.30	O=C(Nc1ccc(Oc2ccnc3cc(-c4ccc(CN5CCOCCOCCOCC5)cn4)sc23)c(F)c1)NC1CC1 [Compound 532]
> 7.30	O=C(Nc1ccc(Oc2ccnc3cc(-c4ccc(CN5CCOCCOCCOCCOCC5)cn4)sc23)c(F)c1)NC1CC1 [Compound 533]
> 7.30	O=C(Nc1ccc(Oc2ccnc3cc(-c4ccc(CN5CCN(C(=O)CCCC[C@H]6SC[C@H]7NC(=O)N[C@H]76)CC5)cn4)sc23)c(F)c1)NC1CC1 [Compound 535]
> 7.30	O=C(Nc1ccc(Oc2ccnc3cc(-c4ccc(CN5CCN(C(=O)[C@@H](O)CO)CC5)cn4)sc23)c(F)c1)NC1CC1 [Compound 536]
> 7.30	CC(C)(CO)C(=O)N1CCN(Cc2ccc(-c3cc4nccc(Oc5ccc(NC(=O)NC6CC6)cc5F)c4s3)nc2)CC1 [Compound 537]
> 7.30	CN(C)CC(=O)N1CCN(Cc2ccc(-c3cc4nccc(Oc5ccc(NC(=O)NC6CC6)cc5F)c4s3)nc2)CC1 [Compound 538]
> 7.30	CN1CCC(C(=O)N2CCN(Cc3ccc(-c4cc5nccc(Oc6ccc(NC(=O)NC7CC7)cc6F)c5s4)nc3)CC2)CC1 [Compound 539]
> 7.30	O=C(Nc1ccc(Oc2ccnc3cc(-c4ccc(CN5CCN(C(=O)[C@H](O)CO)CC5)cn4)sc23)c(F)c1)NC1CC1 [Compound 540]
> 7.30	O=C(Nc1ccc(Oc2ccnc3cc(-c4ccc(CN5CCN(C(=O)[C@H]6CCC(=O)O6)CC5)cn4)sc23)c(F)c1)NC1CC1 [Compound 543]
> 7.30	O=C(O)CCCCCCC(=O)N1CCN(Cc2ccc(-c3cc4nccc(Oc5ccc(NC(=O)NC6CC6)cc5F)c4s3)nc2)CC1 [Compound 544]
